The record followed here is PMC3928314, “Identification and Characterization of Sebaceous Gland Atrophy-Sparing DGAT1 Inhibitors” (PLoS ONE, 2014).

Series [1] can be described thus: Plasma compound concentration after 14 days oral dosing. The series is classed as in vivo, mouse. The conditions noted are these: DIO mice, oral 30 mg/kg or dose indicated (Cpd1 3 mg/kg), trough. Here is the method: (§1) Experiments were performed in male diet induced obese C57BL/6 mice (Taconic Farms, Germantown, NY) that were fed high-fat diet (D12492: 60% kcal from fat; Research Diets) in a 12 hr light/12 hr dark cycle. Animal protocols used in these studies were approved by the Merck Research Laboratories Institutional Animal Care and Use Committee (Rahway, NJ). Mice were acclimated to nonspecific stress for 7 days before the onset of the chronic dosing studies where they were dosed orally with vehicle (0.5% methylcellulose) or compounds at 30 mg/kg, or at doses indicated, for 14 days.
Concentrations of compounds in plasma were determined by LC-MS/MS following protein precipitation. To 100 µL of plasma sample, 20 µL of an acetonitrile solution of the internal standard (2,500 ng/ml), was added. This step was followed by protein precipitation with 300 µL of acetonitrile. Samples expected to contain analyte concentrations exceeding the upper limits of the calibration curves were diluted with control plasma. Sample mixtures were vortex-mixed for 15 minutes. After spinning in a centrifuge for 15 minutes at 1,000× g (at 10°C), the supernatants were transferred by a Tomtec Quadra 96 Model 320 (Hamden, CT) to Empore 96 filter plates (Fisher Scientific, Springfield, NJ), and the resulting filtrates collected. These filtrates were dried at 25°C under a stream of nitrogen gas, on a Zymark TurboVap 96 (Hopkinton, MA). The residues were reconstituted with 100 µL of a 8∶2, v/v, mixture of mobile phases A (20 mM aqueous ammonium acetate containing 0.01% formic acid), and B (80∶20, v/v, acetonitrile:methanol), vortex-mixed, spun in a centrifuge at 1,000× g (at 10°C), then analyzed by LC-MS/MS.
The LC-MS/MS system comprised of a Leap Technologies HTS-PAL autosampler (Carrboro, North Carolina), two Perkin Elmer Series 200 Micro Pumps (Norwalk, CT), an in-line pre-column filter, a Type W 6-port Valco switching valve (Vici, Houston, TX), and a Sciex API 365 mass spectrometer (Toronto, Canada). Chromatographic separation of the analytes was achieved by RP-HPLC.
Data were acquired and processed by Sciex Analyst version 1.1 software. Peak area ratios of analyte to internal standard were plotted as a function of the nominal concentrations of the analyte. A line of best fit was generated from the curve points by linear regression with a weighting factor of 1/x2. The equation of this line was then used to calculate the plasma […] in samples.

The nature of series [2]: Skin compound concentration after 14 days oral dosing. The conditions noted are these: DIO mice; for Skin (skin concentration): oral 30 mg/kg or dose indicated (Cpd1 3 mg/kg), 14 days, trough, BLQ = below detection; for Kp: male, C57BL/6, mouse, skin/plasma, 14 days oral dosing, read-out: Skin/Plasma Ratio (skin to plasma concentration ratio). The series is classed as in vivo, mouse. Here is the method:
as §1
The skin tissue samples from mice were weighted and placed in 48-well plates (or tubes). […] An aliquot of 100 µL homogenized blank skin tissue samples were transferred to 96-well plates designated for standard curve and QCs. […] An aliquot of 100 µL dosed skin tissue homogenates were transferred to the 96-well plate and a 25 µL aliquot of acetonitrile:water 1∶1 was added into each well containing dosed tissue samples to make the volumes of all samples, stds, and QCs equal. Protein precipitation was used for sample extraction by the addition of 500 µL of acetonitrile crash solution, containing IS. Internal standard used was Alprazolam (Sigma Aldrich) at 100 µM in the crash solution. Samples were vortexed for 30 seconds and then centrifuged at 4000 rpm for 5 min. The supernatant was transferred to a separate plate.
A Thermo Scientific-Cohesive LX-2 system consisting of a CTC Analytics autosampler, Flux Instruments AG pumps, and a valve module, controlled by Aria software was used. A Sciex API-4000 mass spectrometer (Toronto, Canada) was the detector using Analyst 1.4.2 software. The aqueous mobile phase (A) was water with 0.1% formic acid and the organic mobile phase (B) was acetonitrile with 0.1% formic acid. A gradient chromatographic profile was used. […] Then over 90 seconds, the chromatic conditions were ramped to 5% A and 95% B. This was held for 25 seconds when the conditions were changed back to original 95% A and 5% B and held for 50 seconds. […] A turbo ionspray interface was used in positive ion mode for detection of analytes. Multiple reaction monitoring (MRM) was used to measure the analyte response. The peak area ratio of analyte to internal standard for nominal concentrations was used to make a linear regression line with a 1/x2 weighting factor. The line's equation was used to determine the concentration in the unknown samples.

The nature of series [3]: Measured logD by high-throughput HPLC. The series is classed as physicochemical. The note with it: reversed-phase HPLC, Poroshell 120 EC-C18 column; HT HPLC, pH 7.0; read-out: mlogD (measured logD). The method, then:
LogD was measured by high-throughput (HT) HPLC at pH 7.0. The chromatographic system consisted of an Agilent 1200 HPLC system composed of a G1379B degasser, G1312B binary pump, G1367C well-plate autosampler, G1316B thermostatted column compartment, G1315C diode-array UV-vis detector, and ChemStation software, all from Agilent Technologies, USA. The separations were carried out on a Poroshell 120 EC-C18, 30 mm×3.0 mm I.D., 2.7 µm, (Agilent Technologies, USA). The mobile phase consisted of phosphate buffered saline at pH 7 (mobile phase A) and acetonitrile (mobile phase B). The column oven temperature was set to 30°C. The HPLC analysis began with an isocratic step of 0.2 minutes at 5% B at 1.5 ml/min, followed by a gradient from 5% to 98% B in 1.0 minute at 1.5 ml/min. A second isocratic step of 0.2 minutes at 98% B with a changing flow rate from 1.5 to 2.0 ml/min was then followed by a gradient from 98 to 5% B in 0.1 minutes with the flow rate changing from 2.0 to 1.5 ml/min. The equilibration time between injections is 0.2 minutes at 5% B. The injection volume is 5 µL and the spectrophotometric detection was set to 215, 238 and 254 nm.
A 10 mM DMSO stock solution of compound was delivered for analysis. A 100 µM standard solution was generated by diluting 10 µL of the 10 mM stock solution with 990 µL of diluent (10% DMSO/10% MeCN/80% MeOH, v/v/v). The chromatographic system was calibrated with a set of standards with published shake-flask logD values. Linear regression was used to determine the calibration line relating the retention time to logD for the calibration standards. This line was then used to determine the HT HPLC logD7.0 value of compound from the measured retention time by the HPLC/DAD analysis of the 100 µM standard solution.

Series [4] has as its system male diet induced obese C57BL/6 mice. Description: Skin histology, sebaceous gland atrophy in DIO mice. The note with it: for Sebaceous gland atrophy in skin, in words (skin-positive / skin-negative): 14 days of treatment; for Sebaceous gland size (area), Geometric Mean: dorsal skin biopsies, Cpd1 3 mg/kg, Cpd2 and Cpd3 30 mg/kg, n 10; for Sebaceous gland size (area), Geometric Mean / Scoring (histological adverse effect score, sebaceous gland atrophy): 14 days; for Scoring (histological adverse effect score, sebaceous gland atrophy): oral 30 mg/kg or dose indicated (Cpd1 3 mg/kg), dorsal skin. The series is classed as in vivo, mouse. The method, then:
as §1
Skin samples from DIO mice treated with DGAT1 inhibitors for 14 days were collected from the dorsal and/or ventral surface and immediately fixed in 10% buffered formalin for 24 hr at room temperature and embedded in paraffin. Paraffin specimens were sectioned at 5 µm and stained with hematoxylin and eosin, and were evaluated blindly with light microscopy. […] One slide/location with at least 50 sebaceous glands was used for scoring purposes. Digital images were captured using a 20× objective and the ScanScope XT slide scanner system (Aperio Technologies, Vista, CA) and managed using Spectrum (Aperio). The size of the sebaceous glands were measured using ImageScope of Aperio system by the method previously described.

The test system of a further series is rats. Description: Longer exposure in rats, skin adverse effects. The series is classed as in vivo, rat. The note with it: up to 300 mg/kg for 4 weeks, data not shown.
Series [5] can be described thus: Unbound fraction (Fu) in plasma by equilibrium dialysis. The series is classed as in vitro ADME. The conditions noted are these: pH 7.4, mouse plasma, equilibrium dialysis 4 hr 37°C. Here is the method:
Plasma protein binding was determined by equilibrium dialysis with an incubation period of 4 hr at 37°C. The dialysis membrane (10-12K MWCO, HTDialysis, LLC) was hydrated and the dialysis apparatus (HTDialysis, LLC) assembled according to the manufacturer's directions. A 150 µL aliquot of mouse plasma containing compound (5 µM) was added to one side of the dialysis membrane. A 150 µL aliquot of phosphate buffered saline (pH 7.4) was added to the opposite side. The plate was then sealed and placed in a shaking incubator set to maintain a temperature of 37°C and constant shaking rate of 60 rpm for 4 hr. At the end of the incubation period, 50 µL aliquots of plasma and buffer were removed and analyzed by LC-MS/MS. Percent unbound was determined as the amount of compound in buffer (post incubation) divided by amount of compound in plasma (post incubation) x100.

The target of another series is T1, mDGAT1 (Mus musculus, UniProt Q9Z2A7).
T1 construct: made in house; host or cells: Pichia (membrane preparations)
T1 sequence (Q9Z2A7 1-498): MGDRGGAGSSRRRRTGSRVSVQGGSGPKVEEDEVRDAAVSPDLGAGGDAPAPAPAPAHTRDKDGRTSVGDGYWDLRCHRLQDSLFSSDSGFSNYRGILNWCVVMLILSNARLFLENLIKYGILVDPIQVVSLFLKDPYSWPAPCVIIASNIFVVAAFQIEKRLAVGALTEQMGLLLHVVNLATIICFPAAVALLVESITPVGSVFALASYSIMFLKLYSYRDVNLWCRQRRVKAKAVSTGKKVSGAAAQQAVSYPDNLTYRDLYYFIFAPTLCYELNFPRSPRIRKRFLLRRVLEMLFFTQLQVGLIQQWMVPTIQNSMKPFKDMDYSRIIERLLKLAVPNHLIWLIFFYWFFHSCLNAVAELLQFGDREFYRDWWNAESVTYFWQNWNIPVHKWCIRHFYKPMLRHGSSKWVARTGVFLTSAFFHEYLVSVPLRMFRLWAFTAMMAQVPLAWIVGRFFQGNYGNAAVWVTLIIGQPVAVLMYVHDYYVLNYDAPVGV
Description: DGAT1 enzyme assay. The conditions noted are these: in vitro potency. The series is classed as biochemical.

The structures appear in SMILES notation. Values joined by “and” are separate entries in the source; they are usually repeats but may differ in a detail not shown here. Equal entries are not always repeated. “Also recorded” adds a separate entry of the source. Where two headings read alike, the source gives them in different places.

Consider `Nc1ncnc2c1C(=O)N(c1ccc([C@H]3CC[C@H](CC(=O)O)CC3)cc1)CCO2` [Cpd1], for which the “Plasma (plasma concentration)” value in series [1] is 0.194 µM. In addition, in series [2], the “Skin (skin concentration)” value is recorded as 0.0621 µM and the Kp stood at 0.32. For the same molecule, in series [3], the chromatographic logD was 0.35. Also, in series [4], the “Sebaceous gland atrophy in skin, in words (skin-positive / skin-negative)” value is “lack of skin AEs; also recorded: appeared normal; also recorded: Skin-Negative”; the “Sebaceous gland size (area), Geometric Mean” value (shortened to “Sebaceous gland size (area)”) turned out to be 1805; the “Scoring (histological adverse effect score, sebaceous gland atrophy)” value is on record as “not remarkable”. Moreover, the “Adverse effects in skin” value in the series on rats is “no adverse effects in skin”.

Take `CC(C)(C)OC(=O)NC1(C(=O)N[C@@H]2CC(=O)c3ccccc3N(Cc3cc(C(F)(F)F)cc(C(F)(F)F)c3)C2=O)CC1` [Cpd2]: in series [1], the “Plasma (plasma concentration)” value is 0.124 µM and 0.106 µM and 0.163 µM. For the same molecule, the “Skin (skin concentration)” value in series [2] was 2.16 µM and 1.94 µM and 2.25 µM. Further, the Kp in series [2] (po) was found to be 17.5. This molecule also yielded a fraction unbound at 4 h, 5 µM in series [5] of 0.01. Further, the chromatographic logD in series [3] stood at 4.04. Moreover, in series [4], the “Sebaceous gland atrophy in skin, in words (skin-positive / skin-negative)” value is “induce either “minimal to mild” or “moderate to marked” skin sebaceous gland atrophy; also recorded: Skin-Positive”; the “Sebaceous gland size (area)” value was 880; the “Scoring (histological adverse effect score, sebaceous gland atrophy)” value is listed as “moderate to marked”.

Regarding `O=C(Nc1ccc([C@H]2CC[C@H](C(=O)O)CC2)cc1F)c1nnc(Nc2ccc(F)c(F)c2)o1` [Cpd3], in series [1], the “Plasma (plasma concentration)” value is 1.38 µM. In series [2], the “Skin (skin concentration)” value worked out at 0.135 µM and the Kp stood at 0.098. Moreover, in series [5], the fraction unbound at 4 h, 5 µM was found to be 0.063. Besides, in series [3], the chromatographic logD worked out at 1.73. In addition, the IC50 on mDGAT1 stood at 0.011 µM. At mDGAT1 (same values in µM), this molecule showed a 50% inhibitory concentration (IC50) of 0.011 µM. Besides, in series [4], the “Sebaceous gland atrophy in skin, in words (skin-positive / skin-negative)” value is reported as “induce either “minimal to mild” or “moderate to marked” skin sebaceous gland atrophy”; the “Sebaceous gland size (area)” value was 1562; the “Scoring (histological adverse effect score, sebaceous gland atrophy)” value is reported as “minimal to mild”.

Take `CC(C)(O)C[C@H]1CC[C@H](c2ccc(N3CCOc4ncnc(N)c4C3=O)cc2)CC1` [Cpd22]: the “Plasma (plasma concentration)” value in series [1] is listed as 51.4 µM. Further, the “Skin (skin concentration)” value in series [2] is listed as “BLQ”. Besides, the fraction unbound at 4 h, 5 µM in series [5] was 0.112. The chromatographic logD in series [3] amounted to 2.15. For the same molecule, in series [4], the “Sebaceous gland atrophy in skin, in words (skin-positive / skin-negative)” value is “induce either “minimal to mild” or “moderate to marked” skin sebaceous gland atrophy” and the “Scoring (histological adverse effect score, sebaceous gland atrophy)” value is “moderate to marked”.
